In US8716285B2, “N-hydroxy-benzamids for the treatment of cancer” (Hoffmann-La Roche Inc., priority 2010, dated 2014):

Key:
recombinant human HDAC8 = recombinant human HDAC8 (Homo sapiens (Human), UniProt Q9BY41); assay: HDAC8 inhibition: recombinant HDAC8 fluorometric assay; type: biochemical; conditions: recombinant human HDAC8, substrate Ac-Arg-His-Lys-Lys(ε-acetyl)-AMC
Protocol: A competitive inhibitory assay of HDAC8 was carried out by using recombinant HDAC8 and a commercial substrate Ac-Arg-His-Lys-Lys(ε-acetyl)-AMC.
Compounds were tested for their ability to inhibit histone deacetylase 8 using an in vitro deacetylation assay. The enzyme source for this assay was recombinant human HDAC8 protein expressed and purified from insect cells. […] The substrate consisted of a commercial product Ac-Arg-His-Lys-Lys(ε-acetyl)-AMC (substrate is available from Cayman Chemical). […] In a detailed procedure, 8 μl of HDAC8 enzyme solution (0.125 μg/μl) was transferred to assay plates (CORNING 3676). 1 μl of half-log diluted compounds were added into wells and incubated for 15 min at rt. After that, 8 μl of substrate solution was transferred to the wells and incubated for 30 min at rt. After deacetylation of the substrate by incubation with HDAC8 enzyme, subsequent exposure to a developing reagent produced a fluorophore that was directly proportional to the level of deacetylation. So 4 μl of developer regent (Cayman 10006394) was added into the wells in the assay plates and incubated for 15 min. The fluorescence signal was measured by a FlexStation3 plate reader (excitation wave length 340-360 nm; emission wave length 440-465 nm). The IC50 was calculated after normalization and curve fitting using XLfit4.0 software. Inhibition %=[Mean(top)−signal(sample)]*100/[Mean(top)−Mean(bottom)].

HDAC6 = HDAC6 (Homo sapiens (Human), UniProt Q9UBN7); assay: Tubulin acetylation cytoblot assay (A549 cells); type: cell-based; conditions: 17-18 h, concentration for 50% induction of acetylated tubulin, read-out: Tub-ac EC50
Protocol: Tubulin acetylation is a PD marker for HDAC6 inhibition. The extent of tubulin acetylation represents the inhibitory effect on HDAC6.
Novel compounds were tested for their ability to inhibit HDAC6 using a cell-based deacetylation assay. Tubulin acetylation was detected by the anti-acetylated tubulin antibody (Sigma) and horse radish peroxidase (HRP) conjugated secondary antibody (KangChen Bio. Tech.). […] 20 μl of diluted compound solution was transferred to the cell culture plate and incubated for 17-18 h. After medium removal and fixation by formaldehyde (3.7% paraformaldehyde in TBS), the cells in the plates were treated with 180 μl of −20° C. MeOH and incubated for 5 min at rt. The cell lysis was incubated with 75 μl of primary anti-acetylated tubulin antibody and secondary HRP conjugated antibody solution (1:750 anti-acetylated tubulin, 1:750 HRP conjugated anti-mouse IgG in antibody dilution buffer not containing sodium azide) for 4 h at 4° C. By adding the HRP substrate, enhanced chemiluminescence (ECL) reagent (GE Healthcare) generated luminescence corresponding to the level of tubulin acetylation. So that 75 μl of ECL was added into the wells and the luminescence from each well was immediately quantified by the plate reader. Based on the luminescence reading, the IC50s against HDAC6 of the tested compounds were calculated by plotting the curve with XLfit4.0 software. Inhibition %=[signal(sample)−Mean(bottom)]*100/[Mean(top)−Mean(bottom)]

[1] = tested on: p21 promoter-luciferase construct; assay: p21 reporter gene induction in HeLa cells transfected with p21 promoter-luciferase construct; type: cell-based; conditions: for p21 RP3: relative gene level of p21 induced compared to MS275 at 3 μM; for p21 RP10: relative level of p21 induced compared to MS275 at 10 μM; for p21 RP30: relative level of p21 induced compared to MS275 at 30 μM
Protocol: As a surrogate for in-cell HDAC1/2/3 inhibition, p21 induction was used as a counterscreen to evaluate the selectivity of the compounds in the present invention toward HDAC6 or HDAC8.
The novel compounds of the present invention were tested for their ability to induce p21 gene expression using a reporter gene assay involving HeLa cells transfected with a p21 promoter-luciferase construct. The p21 promoter contained the Sp1/Sp3 binding site for HDAC but not the upstream p53 binding site. Briefly, the day before transfection, HeLa cells were seeded at 11,000 cells/well in a 96-well culture plate and incubated at 37° C. in 5% CO2 overnight. A transfection media was prepared prior to transfection according to the following procedure: (1) 5 μl serum-free DMEM, 0.15 μl Fugene 6 reagent, 40 ng p21-luc, 10 ng GFP were mixed gently and incubated at rt for 30 minutes; (2), then 98 μl DMEM (with 10% FBS, 1% penicillin and streptomycin) was added to the DNA: Fugene 6 reagent complex and mixed gently. For transfection, the medium was removed and replaced with 100 μl/well transfection media which was prepared according to the procedure above. After incubating the cells for 24 hours at 37° C. in 5% CO2, fresh media and test compounds were added to the wells and the cells further incubated for 15 hours at 37° C. in 5% CO2. Cells were lysed by adding 80 μl/well of a cell culture lysis reagent (Promega). […] 100 μl luciferase assay reagent (Promega) was then added to every 20 μl cell lysate for luminometer detection. […] Induction activity for specific representative compounds can be found in Table 3.

Sequence of HDAC6 (Q9UBN7 whole entry): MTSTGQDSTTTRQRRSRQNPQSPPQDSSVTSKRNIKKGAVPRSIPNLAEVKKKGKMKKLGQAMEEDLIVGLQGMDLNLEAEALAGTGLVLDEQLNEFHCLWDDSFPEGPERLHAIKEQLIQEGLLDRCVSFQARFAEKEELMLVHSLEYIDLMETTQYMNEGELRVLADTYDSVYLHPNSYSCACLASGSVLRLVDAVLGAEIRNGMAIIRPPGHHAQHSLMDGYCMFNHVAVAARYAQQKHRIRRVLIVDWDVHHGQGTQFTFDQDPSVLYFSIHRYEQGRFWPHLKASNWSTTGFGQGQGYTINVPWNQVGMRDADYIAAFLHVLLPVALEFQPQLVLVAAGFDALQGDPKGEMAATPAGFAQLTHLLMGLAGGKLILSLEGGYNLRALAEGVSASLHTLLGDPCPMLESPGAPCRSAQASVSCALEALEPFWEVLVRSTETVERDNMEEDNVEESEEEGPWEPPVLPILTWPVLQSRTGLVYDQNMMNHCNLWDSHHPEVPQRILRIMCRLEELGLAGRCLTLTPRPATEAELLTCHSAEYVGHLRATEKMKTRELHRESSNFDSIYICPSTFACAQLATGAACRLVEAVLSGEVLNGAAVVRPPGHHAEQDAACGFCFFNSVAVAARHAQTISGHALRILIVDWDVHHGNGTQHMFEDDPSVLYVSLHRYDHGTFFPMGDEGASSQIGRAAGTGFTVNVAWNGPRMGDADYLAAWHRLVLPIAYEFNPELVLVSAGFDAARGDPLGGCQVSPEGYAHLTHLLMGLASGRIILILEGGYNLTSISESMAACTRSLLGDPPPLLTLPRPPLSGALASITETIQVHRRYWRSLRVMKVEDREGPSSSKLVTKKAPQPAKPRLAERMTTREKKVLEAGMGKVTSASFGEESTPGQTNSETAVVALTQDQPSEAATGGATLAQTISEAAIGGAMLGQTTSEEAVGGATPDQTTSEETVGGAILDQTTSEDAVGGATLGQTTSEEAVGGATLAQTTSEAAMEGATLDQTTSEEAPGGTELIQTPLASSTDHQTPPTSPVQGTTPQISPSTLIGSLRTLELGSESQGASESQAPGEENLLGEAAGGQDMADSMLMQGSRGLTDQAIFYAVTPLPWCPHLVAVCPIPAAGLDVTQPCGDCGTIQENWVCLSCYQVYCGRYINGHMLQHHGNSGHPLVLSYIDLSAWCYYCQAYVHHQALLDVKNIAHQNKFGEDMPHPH
Sequence of recombinant human HDAC8 (Q9BY41 whole entry): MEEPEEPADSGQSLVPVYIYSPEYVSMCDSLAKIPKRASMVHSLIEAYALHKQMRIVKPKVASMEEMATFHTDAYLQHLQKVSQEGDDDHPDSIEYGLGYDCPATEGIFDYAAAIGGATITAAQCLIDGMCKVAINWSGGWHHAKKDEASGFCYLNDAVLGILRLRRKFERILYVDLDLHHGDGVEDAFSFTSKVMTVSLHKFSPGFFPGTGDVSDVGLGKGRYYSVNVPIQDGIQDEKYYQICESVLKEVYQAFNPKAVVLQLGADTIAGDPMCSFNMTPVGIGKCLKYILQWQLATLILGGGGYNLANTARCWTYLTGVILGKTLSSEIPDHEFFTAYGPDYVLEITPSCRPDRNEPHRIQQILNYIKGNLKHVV

| SMILES | IC50 (recombinant human HDAC8) [µM] | EC50 (HDAC6) [µM] | p21 RP3 [1] | p21 RP10 [1] | p21 RP30 [1] |
| --- | --- | --- | --- | --- | --- |
| O=C(NO)c1ccc2c(c1)CC(Nc1ccc([N+](=O)[O-])cc1)CC2 (stereo not drawn) [Example 3, 7-(4-nitro-phenylamino)-5,6,7,8-tetrahydro-naphthalene-2-carboxylic acid hydroxyamide] | 3.74 | 1.86 | 0.08 | −0.08 | −0.06 |
| O=C(NO)c1ccc2c(c1)CC(Nc1ccccn1)CC2 (stereo not drawn) [Example 5, 7-(Pyridin-2-ylamino)-5,6,7,8-tetrahydro-naphthalene-2-carboxylic acid hydroxyamide] | 2.9 | – | – | – | – |
| O=C(NO)c1ccc2c(c1)CC(Nc1nccc(-c3ccc(Oc4ccccc4)cc3)n1)CC2 (stereo not drawn) [Example 23, 7-[4-(4-Phenoxy-phenyl)-pyrimidin-2-ylamino]-5,6,7,8-tetrahydro-naphthalene-2-carboxylic acid hydroxyamide] | 1.44 | – | 0.30 | 0.00 | −0.10 |
| O=C(NO)c1ccc2c(c1)CC(Nc1nccc(-c3ccc4ccccc4c3)n1)CC2 (stereo not drawn) [Example 33, 7-(4-Naphthalen-2-yl-pyrimidin-2-ylamino)-5,6,7,8-tetrahydro-naphthalene-2-carboxylic acid hydroxyamide] | 3.78 | – | 0.19 | −0.20 | −0.25 |
| O=C(NO)c1cc2c(cc1F)CCC(Nc1ncccn1)C2 (stereo not drawn) [Example 49, 3-Fluoro-7-(pyrimidin-2-ylamino)-5,6,7,8-tetrahydro-naphthalene-2-carboxylic acid hydroxyamide] | – | 4.3 | 0.50 | 0.08 | 0.00 |
| O=C(NO)c1ccc2c(c1)CC(Nc1nccc(-c3cccnc3)n1)CN2 (stereo not drawn) [Example 53] | – | 11.8 | 0.18 | 0.03 | 0.02 |
| O=C(NO)c1ccc2c(c1)CC(NS(=O)(=O)c1ccc(Cl)cc1)CN2 (stereo not drawn) [Example 60, 3-(4-Chloro-benzenesulfonylamino)-1,2,3,4-tetrahydro-quinoline-6-carboxylic acid hydroxyamide] | 1.46 | – | 0.46 | 0.10 | 0.04 |
| O=C(NO)c1ccc2c(c1)CC(NS(=O)(=O)c1cccc(F)c1)CN2 (stereo not drawn) [Example 62, 3-(3-Fluoro-benzenesulfonylamino)-1,2,3,4-tetrahydro-quinoline-6-carboxylic acid hydroxyamide] | 1.14 | – | 0.13 | 0.02 | 0.01 |
| O=C(NO)c1ccc2c(c1)CC(NS(=O)(=O)c1cccc(OC(F)(F)F)c1)CN2 (stereo not drawn) [Example 63, 3-(3-Trifluoromethoxy-benzenesulfonylamino)-1,2,3,4-tetrahydro-quinoline-6-carboxylic acid hydroxyamide] | 1.61 | – | 0.11 | 0.04 | 0.01 |
| COc1ccc(S(=O)(=O)NC2CNc3ccc(C(=O)NO)cc3C2)cc1OC (stereo not drawn) [Example 64, 3-(3,4-Dimethoxy-benzenesulfonylamino)-1,2,3,4-tetrahydro-quinoline-6-carboxylic acid hydroxyamide] | 1.22 | – | −0.02 | 0.06 | 0.04 |

Continued by falling IC50 (recombinant human HDAC8), values first:

| IC50 (recombinant human HDAC8) [µM] | EC50 (HDAC6) [µM] | SMILES | p21 RP3 [1] | p21 RP10 [1] | p21 RP30 [1] |
| --- | --- | --- | --- | --- | --- |
| 0.99 | – | O=C(/C=C/c1cccnc1)NC1CCc2ccc(C(=O)NO)cc2C1 (stereo not drawn) [Example 37, 7-((E)-3-Pyridin-3-yl-acryloylamino)-5,6,7,8-tetrahydro-naphthalene-2-carboxylic acid hydroxyamide] | −0.18 | −0.05 | – |
| 0.97 | – | O=C(NO)c1ccc2c(c1)CC(NS(=O)(=O)c1cccc(Cl)c1)CN2 (stereo not drawn) [Example 61, 3-(3-Chloro-benzenesulfonylamino)-1,2,3,4-tetrahydro-quinoline-6-carboxylic acid hydroxyamide] | 0.21 | 0.07 | 0.04 |
| 0.93 | 2.07 | O=C(NO)c1ccc2c(c1)CC(Nc1ccc([N+](=O)[O-])cn1)CC2 (stereo not drawn) [Example 6, 7-(5-Nitro-pyridin-2-ylamino)-5,6,7,8-tetrahydro-naphthalene-2-carboxylic acid hydroxyamide] | 0.18 | 0.03 | −0.01 |
| 0.8 | 5.1 | Cc1ccc(-c2ccnc(NC3CCc4ccc(C(=O)NO)cc4C3)n2)cc1 (stereo not drawn) [Example 11, 7-(4-p-Tolyl-pyrimidin-2-ylamino)-5,6,7,8-tetrahydro-naphthalene-2-carboxylic acid hydroxyamide] | −0.13 | −0.18 | −0.18 |
| 0.8 | 3.46 | CN(C)c1cccc(-c2ccnc(NC3CCc4ccc(C(=O)NO)cc4C3)n2)c1 (stereo not drawn) [Example 16, 7-[4-(3-Dimethylamino-phenyl)-pyrimidin-2-ylamino]-5,6,7,8-tetrahydro-naphthalene-2-carboxylic acid hydroxyamid] | 1.50 | 0.40 | 0.30 |
| 0.68 | 5.47 | O=C(NO)c1ccc2c(c1)CC(Nc1ccc(Br)cc1)CC2 (stereo not drawn) [Example 2, 7-(4-bromo-phenylamino)-5,6,7,8-tetrahydro-naphthalene-2-carboxylic acid hydroxyamide] | 0.26 | −0.06 | −0.04 |
| 0.3 | 0.83 | O=C(NO)c1ccc2c(c1)CC(Nc1nccc(C(F)(F)F)n1)CC2 (stereo not drawn) [Example 8, 7-(4-Trifluoromethyl-pyrimidin-2-ylamino)-5,6,7,8-tetrahydro-naphthalene-2-carboxylic acid hydroxyamide] | −0.12 | −0.06 | −0.19 |
| 0.29 | 1.68 | CCOc1cc(C)nc(NC2CCc3ccc(C(=O)NO)cc3C2)n1 (stereo not drawn) [Example 9, 7-(4-Ethoxy-6-methyl-pyrimidin-2-ylamino)-5,6,7,8-tetrahydro-naphthalene-2-carboxylic acid hydroxyamide] | −0.21 | −0.03 | −0.10 |
| 0.26 | 0.97 | O=C(NO)c1ccc2c(c1)CC(Nc1nccc(-c3ccc(F)cc3)n1)CC2 (stereo not drawn) [Example 12, 7-[4-(4-Fluoro-phenyl)-pyrimidin-2-ylamino]-5,6,7,8-tetrahydro-naphthalene-2-carboxylic acid hydroxyamide] | 0.10 | 0.00 | −0.10 |
| 0.16 | – | O=C(NO)c1ccc2c(c1)CC(NS(=O)(=O)c1cccc(Cl)c1)CC2 (stereo not drawn) [Example 42, 7-(3-Chloro-benzenesulfonylamino)-5,6,7,8-tetrahydro-naphthalene-2-carboxylic acid hydroxyamide] | – | – | – |
